The values below come from patent US12329756B2, “Regulation of eIF4E activity for migraine therapy” (Board of Regents, The University of Texas System, priority 2020, dated 2025).

One data set relates to A549 cells. The settings on record: cited from earlier work.
The conditions of data set [1]: local administration; cited from earlier work.
For another data set, the system named is female ICR mice. Description: dural IL-6 facial hypersensitivity and hyperalgesic priming model (von Frey facial withdrawal threshold). Format: in vivo. The settings on record: for hyperalgesic priming: response to second dural stimulus SIF pH 7.0: 25 μg dural co-injection with 0.1 ng IL-6, pH 7.0 given after return to baseline; for acute facial mechanical hypersensitivity after dural IL-6: 25 μg dural co-injection with 0.1 ng IL-6, versus IL-6 alone. Here is the method: Mice received a dural injection of interleukin-6 in the absence or presence of the protein synthesis inhibitor anisomycin or the translation initiation inhibitor 4EGI-1 and were tested for facial hypersensitivity. Upon returning to baseline, mice were given a second, non-noxious dural injection of pH 7.0 to test for priming. Additionally, eIF4ES209A mice lacking phosphorylation of mRNA cap-binding protein eIF4E received dural interleukin-6 or were subjected to repeated restraint stress and then tested for facial hypersensitivity. After returning to baseline, mice were given either dural pH 7.0 or a systemic sub-threshold dose of the nitric oxide donor sodium nitroprusside and tested for priming.
First female mice were administered either 0.1 ng of IL-6, 25 μg of anisomycin (a general protein synthesis inhibitor), or a co-injection of both onto the dura to induce mechanical facial allodynia that persisted for more than 24 h and resolved by 72 h (FIG. 2). Upon returning to baseline, a second stimulus, SIF (pH 7.0), was administered onto the dura to reveal the presence of hyperalgesic priming from the initial IL-6 stimulus. […] This hypersensitivity persisted for more than 5 h.
Similar to the experiments used to generate FIG. 2, 0.1 ng of IL-6, 25 μg of 4EGI-1, a compound that mimics the activity of 4E-BP1, or a co-injection of both was administered onto the dura of female mice (FIG. 3). The resulting mechanical allodynia induced by IL-6 persisted for more than 24 h and resolved after 72 h. Upon returning to baseline, mice were exposed to a dural injection of low pH. […] Thus, assembly of the eIF4F complex locally in the dura appears to be critical to the development of long-lasting mechanical hypersensitivity following repeated stress.
Human recombinant IL-6 protein (R&D Systems) stock solution (100 mg/mL) was prepared in sterile 0.1% BSA and diluted to 1 ng/mL in synthetic interstitial fluid (SIF) consisting of 135 mM NaCl, 5 mM KCl, 10 mM HEPES, 2 mM CaCl2, 10 mM glucose, 1 mM MgCl2 (pH 7.4, 310 mOsm). Anisomycin (Tocris) stock solution (135 mg/mL) and 4EGI-1 (Enzo) stock solution (20 mg/mL) were both prepared in sterile 0.1% BSA and diluted to 5 mg/mL in SIF. Sodium nitroprusside (SNP) (Sigma-Aldrich) was prepared in sterile phosphate buffered saline (PBS) at the time of use and was kept away from light. For dural injections, mice received […] injections of either IL-6, anisomycin, 4EGI-1, SIF, or a combination of IL-6 and anisomycin or IL-6 and 4EGI-1 for acute testing. For testing the ability of mice to prime to the initial stimulus in these dural injection experiments, […] of SIF pH 7.0 were administered onto the dura. […]

For another data set, the system named is Jurkat cells. The settings on record: cited from earlier work.
The next data set has as its system hyperglycemic mice. The settings on record: cited from earlier work.
Another data set relates to mice. The settings on record: Moy et al. (2017); cited from earlier work.
For the next data set, the target named is T1, Candida Pkc1 (Candida albicans, UniProt P43057).
T1 sequence (P43057 1-1097): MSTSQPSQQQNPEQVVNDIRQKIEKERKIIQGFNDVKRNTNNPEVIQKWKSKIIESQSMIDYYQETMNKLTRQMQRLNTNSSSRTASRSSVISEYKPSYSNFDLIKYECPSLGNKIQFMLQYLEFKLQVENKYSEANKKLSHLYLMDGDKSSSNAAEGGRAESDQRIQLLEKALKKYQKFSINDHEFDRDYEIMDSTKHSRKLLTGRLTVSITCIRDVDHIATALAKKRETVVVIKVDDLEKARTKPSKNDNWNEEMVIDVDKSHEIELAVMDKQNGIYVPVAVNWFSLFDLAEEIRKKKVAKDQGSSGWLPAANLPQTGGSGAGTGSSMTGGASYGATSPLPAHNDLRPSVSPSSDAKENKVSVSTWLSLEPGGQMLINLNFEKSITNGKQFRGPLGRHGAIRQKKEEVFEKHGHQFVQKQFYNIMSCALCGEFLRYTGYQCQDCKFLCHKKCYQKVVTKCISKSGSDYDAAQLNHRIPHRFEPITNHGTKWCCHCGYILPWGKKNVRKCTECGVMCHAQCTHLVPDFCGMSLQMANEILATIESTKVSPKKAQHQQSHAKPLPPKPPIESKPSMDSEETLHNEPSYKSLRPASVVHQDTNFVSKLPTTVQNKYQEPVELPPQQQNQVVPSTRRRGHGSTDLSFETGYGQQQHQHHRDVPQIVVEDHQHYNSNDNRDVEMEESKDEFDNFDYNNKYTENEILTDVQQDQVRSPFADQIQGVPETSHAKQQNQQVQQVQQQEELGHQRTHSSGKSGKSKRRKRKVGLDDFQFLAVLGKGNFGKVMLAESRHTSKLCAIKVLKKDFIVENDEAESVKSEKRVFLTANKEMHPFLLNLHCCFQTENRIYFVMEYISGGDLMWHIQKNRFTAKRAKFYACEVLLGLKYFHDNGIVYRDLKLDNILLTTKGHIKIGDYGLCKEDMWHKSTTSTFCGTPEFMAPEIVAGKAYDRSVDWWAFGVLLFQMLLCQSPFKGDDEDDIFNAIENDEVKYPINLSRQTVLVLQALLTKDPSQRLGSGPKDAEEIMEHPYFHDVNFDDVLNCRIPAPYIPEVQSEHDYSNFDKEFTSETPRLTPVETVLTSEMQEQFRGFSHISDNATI
The settings on record: cited from earlier work.

For data set [2] the following is noted: in vivo; cited from earlier work.
Another data set concerns hindpaw. The settings on record: local co-injection with IL-6 into the hindpaw, previous study; cited from earlier work.
Data set [3] concerns models which harbor activating MyD88 mutations. The settings on record: in vivo, multiple models harboring activating MyD88 mutations; cited from earlier work.
The next data set concerns TNFa mRNA. The settings on record: cited from earlier work.
For a further data set, the system named is DLBCL cell lines. The settings on record: multiple DLBCL cell lines; cited from earlier work.
Data set [4] has as its system TNFa, IL-6, IL-10 and CXCL10 production in TMD8, OCI-Ly3 and HBL1 DLBCL cell lines. The settings on record: cited from earlier work.
The test system of data set [5] is eIF4E phosphorylation at serine 209. The settings on record: in vitro, tumor cell lines, dose-dependent; read-out: IC50 for reduction of eIF4E phosphorylation at serine 209; cited from earlier work.

`O=C(O)C(Cc1ccccc1[N+](=O)[O-])=NNc1nc(-c2ccc(Cl)c(Cl)c2)cs1` [4EGI-1]: in the data set with A549 cells, the “activity against A549 cells” value is “exhibits activity”. Besides, the “mechanical hypersensitivity and injury-induced changes in nociceptor excitability” value in data set [1] is recorded as “reduces”. Moreover, in the data set with female ICR mice, the “hyperalgesic priming: response to second dural stimulus SIF pH 7.0” value is “robustly blocked” and the “acute facial mechanical hypersensitivity after dural IL-6” value is on record as “partially attenuated”. In addition, the “activity against Jurkat cells” value in the data set with Jurkat cells is reported as “exhibits activity”.
For `CC(=O)C1=C(O)C=C2Oc3c(C(N)=O)c(O)cc(O)c3[C@]2(C)C1=O` [Cercosporamide], the plasma glucose entry with hyperglycemic mice is “lowering of plasma glucose”. The “cold hypersensitivity induced by peripheral nerve injury” value in the data set with mice was “reduced”. The half-maximal inhibitory concentration (IC50) (as a rule, the point on the concentration scale where inhibition reaches its midpoint) on Candida Pkc1 was 25 nM. Besides, in data set [2], the oral bioavailability entry was “orally bioavailable”.
With `COc1ccc(C[C@H]2NC[C@H](O)[C@H]2OC(C)=O)cc1` [anisomycin], the “acute mechanical hypersensitivity after IL-6 into the hindpaw” value in the data set on hindpaw is “prevented”. In addition, in data set [1], the “mechanical hypersensitivity and injury-induced changes in nociceptor excitability” value was “reduces”. In the data set with female ICR mice, the “hyperalgesic priming: response to second dural stimulus SIF pH 7.0” value is “did not respond to the low pH” and the “acute facial mechanical hypersensitivity after dural IL-6” value is “only minor differences”.
As for `Cc1cc(Nc2cc(N)ncn2)c(=O)n2c1C(=O)NC21CCCCC1` [eFT508], the anti-tumor activity entry in data set [3] is on record as “significant anti-tumor activity”. The “decrease in TNFa mRNA half-life” value in the data set with TNFa mRNA is on record as 2 fold. Further, the anti-proliferative activity entry in the data set with DLBCL cell lines is given as “anti-proliferative activity”. The “production of pro-inflammatory cytokines including TNFa, IL-6, IL-10 and CXCL10” value in [4] is reported as “dose-dependent decreases”. In addition, the oral bioavailability entry in data set [2] is given as “orally bioavailable”. For the same compound, the IC50 in data set [5] was 2 to 16 nM.
